# In patent publication US20210221848A1, “POLYMYXIN DERIVATIVES AND THEIR USE IN COMBINATION THERAPY TOGETHER WITH DIFFERENT ANTIBIOTICS” (priority 2014, published 2021):
# Like-named read-outs stand apart in the source and are kept apart here.
# What was measured:
# [1] = tested on: Acinetobacter baumannii NCTC 13301; details: mouse thigh, 16 h model
# [2] = tested on: A. baumannii; experiment: MIC in 1:1 (wt:wt) combination with Rifampicin; format: cell-based, Acinetobacter baumannii; details: A. baumannii 053; 1:1 (wt:wt) with Rifampicin; total drug concentration
# Method: (§1) The inoculum was prepared by making a direct suspension of isolated colonies (selected from an 18-24 hour Mueller-Hinton agar plate) adjusted to the 0.5 McFarland standard. […] The assays were performed in duplicate. […] In cases where the duplicate values varied by less than 2-fold, the lower of the two values is reported. If a variation of greater than 2-fold was observed, the assay was considered non-valid. Several of the compounds were subjected to multiple tests, and where this is the case, the MIC reflects the modal value obtained.
# (§2) MIC values (microgram/mL) refer to the total drug concentration (i.e. test agent plus Rifampicin).
# [3] = tested on: E. coli; details: absence of a second agent, Table 6B
# [4] = tested on: K. pneumoniae strains with elevated MICs to Polymyxin B; experiment: MIC against strains with elevated MICs to Polymyxin B; format: cell-based, Klebsiella pneumoniae; details: Table 6D
# Outline: (§3)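 Inoculum was a direct suspension of colonies from an 18-24 hour Mueller-Hinton agar plate, adjusted to the 0.5 McFarland standard. Duplicate assays; the lower value was reported when duplicates differed by less than 2-fold, otherwise the run was invalid. Repeat-tested compounds give the modal MIC.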
# [5] = tested on: K. pneumoniae; experiment: MIC in 1:1 (wt:wt) combination with Rifampicin; format: cell-based, Klebsiella pneumoniae; details: 1:1 (wt:wt) with Rifampicin, total drug concentration
# Method: as §1, §2
# [6] = tested on: A. baumanii strains with elevated MICs to Polymyxin B; experiment: MIC against strains with elevated MICs to Polymyxin B; format: cell-based, Acinetobacter baumannii; details: Table 6D
# Outline: as §3
# [7] = tested on: P. aeruginosa strains with elevated MICs to Polymyxin B; experiment: as above; format: cell-based, Pseudomonas aeruginosa; details: Table 6D
# Outline: as §3
# [8] = tested on: P. aeruginosa; details: absence of a second agent, Table 6B
# [9] = tested on: A. baumannii; details: absence of a second agent, Table 6B
# [10] = tested on: P. aeruginosa; experiment: MIC in 1:1 (wt:wt) combination with Rifampicin; format: cell-based, Pseudomonas aeruginosa; details: 1:1 (wt:wt) with Rifampicin, total drug concentration
# Method: as §1, §2
# [11] = tested on: E. coli; experiment: MIC in 1:1 (wt:wt) combination with Rifampicin; format: cell-based, Escherichia coli; details: 1:1 (wt:wt) with Rifampicin, total drug concentration
# Method: as §1, §2
# [12] = tested on: K. pneumoniae; details: absence of a second agent, Table 6B
# [13] = tested on: E. coli strains with elevated MICs to Polymyxin B; experiment: MIC against strains with elevated MICs to Polymyxin B; format: cell-based, Escherichia coli; details: Table 6D
# Outline: as §3
# [14] = tested on: Pseudomonas aeruginosa ATCC 27853; format: in vivo; details: mouse lungs, P. aeruginosa ATCC 27853, SC at 2, 6 and 10 h post-infection, 16 h infection model, 17.2 mg/kg/dose free base
# Method: Groups of 7 male neutropenic specific-pathogen-free CD-1 mice weighing 21.5-27.5 g were used. On Day 0, animals were infected with 0.04 mL inoculum by intranasal instillation into mouse nostrils and were kept in an upright position on a string rack for ˜10 min post-infection. […] At 2 h, the CFU count was determined from 3 mice and the remaining mice (7 per test compound groups) were treated with a subcutaneous injection of the drug at +2, 6 and 10 hr post-infection. Test compounds and the comparator polymyxin B were administered at four concentrations (2.6, 8.6, 17.2 and 25.8 mg/kg free base). The vehicle control group (7 mice) was treated with 0.9% saline for injection at 2, 6 and 10 h post-infection.
# Sixteen hours after infection, the mice were euthanized humanely. The lungs of each animal were harvested, homogenized and quantitatively cultured onto CLED agar for CFU determination. Decrease of the total CFU compared to control counts at 16 h post-infection was determined for each dose group.
# The in vivo efficacy of 4 compounds of the invention (D25, D36, D42 and D50) was evaluated in a mouse lung infection model of P. aeruginosa ATCC 27853. The model was setup as described above with the exception that groups of up to 8 mice were inoculated through intranasal instillation of ˜2.5×10^6 CFUs of P. aeruginosa isolate ATCC 27853 (1.0×10^5 CFU/lung). Test compounds were administered at two concentrations (equivalent to 4.3 and 17.2 mg/kg free base). Three dose levels of polymyxin B sulfate were used as comparator (equivalent to 4.3, 8.6 and 17.2 mg/kg free base).
substance,measurement,setting,value
(trans-5-(2- methylpropyl) piperidine)-3-carbonyl polymyxin B nonapeptide [Example D50],Mean log10 CFU reduction vs. control,"[1]; 0.215 mg/kg/dose free base SC at 2, 6 and 10 h post-infection",0.69 log10 CFU
same,Mean log10 CFU reduction vs. control,"[1]; 0.86 mg/kg/dose free base SC at 2, 6 and 10 h post-infection",4.74 log10 CFU
same,Mean log10 CFU reduction vs. control,"[1]; 2.6 mg/kg/dose free base SC at 2, 6 and 10 h post-infection",5.05 log10 CFU
same,Mean log10 CFU reduction vs. control,"[1]; 8.6 mg/kg/dose free base SC at 2, 6 and 10 h post-infection",5.79 log10 CFU
same,Mean log10 CFU reduction vs. control,"[1]; 17.2 mg/kg/dose free base SC at 2, 6 and 10 h post-infection",5.69 log10 CFU
same,"MIC in 1:1 combination with rifampicin, A. baumannii 053",[2],≤0.5 microgram/mL
same,"MIC, E. coli ATCC 25922",[3]; E. coli ATCC 25922,0.06 micrograms/mL
same,"MIC, E. coli NCTC 13441",[3]; E. coli NCTC 13441,0.06 micrograms/mL
same,MIC K. pneumoniae 062,"[4]; strain 062, elevated MIC to Polymyxin B",64 micrograms/mL
same,MIC K. pneumoniae 063,"[4]; strain 063, elevated MIC to Polymyxin B",16 micrograms/mL
same,MIC K. pneumoniae 064,"[4]; strain 064, elevated MIC to Polymyxin B",4 micrograms/mL
same,MIC K. pneumoniae 655,"[4]; strain 655, elevated MIC to Polymyxin B",16 micrograms/mL
same,"MIC in 1:1 combination with rifampicin, K. pneumoniae 062",[5]; K. pneumoniae 062,1 microgram/mL
same,"MIC in 1:1 combination with rifampicin, K. pneumoniae CCUG 59348",[5]; K. pneumoniae CCUG 59348,≤0.5 microgram/mL
same,MIC A. baumannii 053,"[6]; strain 053, elevated MIC to Polymyxin B",128 micrograms/mL
same,MIC A. baumannii 056,"[6]; strain 056, elevated MIC to Polymyxin B",32 micrograms/mL
same,MIC A. baumannii 068,"[6]; strain 068, elevated MIC to Polymyxin B",8 micrograms/mL
same,MIC A. baumannii 070,"[6]; strain 070, elevated MIC to Polymyxin B",16 micrograms/mL
same,MIC P. aeruginosa 065,"[7]; strain 065, elevated MIC to Polymyxin B",6 micrograms/mL
same,MIC P. aeruginosa 066,"[7]; strain 066, elevated MIC to Polymyxin B",4 micrograms/mL
same,MIC P. aeruginosa 067,"[7]; strain 067, elevated MIC to Polymyxin B",>256 micrograms/mL
same,"MIC, P. aeruginosa ATCC 27853",[8]; P. aeruginosa ATCC 27853,0.5 micrograms/mL
same,"MIC, P. aeruginosa CCUG 59347",[8]; P. aeruginosa CCUG 59347,1 micrograms/mL
same,"MIC, A. baumannii ATCC BAA-747",[9]; A. baumannii ATCC BAA-747,0.25 micrograms/mL
same,"MIC, A. baumannii NCTC 13424",[9]; A. baumannii NCTC 13424,0.25 micrograms/mL
same,"MIC in 1:1 combination with rifampicin, P. aeruginosa 063",[10]; P. aeruginosa 063,32 microgram/mL
same,"MIC in 1:1 combination with rifampicin, P. aeruginosa 068",[10]; P. aeruginosa 068,1 microgram/mL
same,"MIC in 1:1 combination with rifampicin, E. coli 059",[11]; E. coli 059,≤0.5 microgram/mL
same,"MIC in 1:1 combination with rifampicin, E. coli 060",[11]; E. coli 060,≤0.5 microgram/mL
same,"MIC in 1:1 combination with rifampicin, E. coli ATCC 25922",[11]; E. coli ATCC 25922,≤0.5 microgram/mL
same,"MIC, K. pneumoniae ATCC 4352",[12]; K. pneumoniae ATCC 4352,0.06 micrograms/mL
same,"MIC, K. pneumoniae ATCC BAA-2146",[12]; K. pneumoniae ATCC BAA-2146,0.125 micrograms/mL
same,MIC E. coli 058,"[13]; strain 058, elevated MIC to Polymyxin B",4 micrograms/mL
same,MIC E. coli 059,"[13]; strain 059, elevated MIC to Polymyxin B",8 micrograms/mL
same,MIC E. coli 060,"[13]; strain 060, elevated MIC to Polymyxin B",4 micrograms/mL
same,MIC E. coli 061,"[13]; strain 061, elevated MIC to Polymyxin B",8 micrograms/mL
same,Mean log10 CFU reduction vs. control,[14],5.29 log10 CFU
